From patent US8268809B2, “Kinase inhibitors for preventing or treating pathogen infection and method of use thereof” (priority 2006, dated 2012)

Columns and labels:
[1] = tested on: gamma-herpes variant that expresses GFP under a CMV promoter (GHV-Bac-GFP); experiment: Herpes virus assay: GHV-Bac-GFP infection of 3T3 monolayers, cytopathic effect and GFP spread; assay type: cell-based, gamma-herpes virus; details: for Herpes phenotype group / HERPES: 3T3 cells, GHV-Bac-GFP; for Herpes phenotype group: 10 μM, after 7 days; for HERPES: compound 10 μM, 7 days
Method: All herpes viruses share the property of establishing life-long infection in their host. […] To determine whether tyrosine kinases participate in gamma-herpes virus infections, confluent monolayers of 3T3 cells were exposed and plated in optical 96 well dishes to the library of compounds of the present invention described herein for 1 hour. The cells were then infected with a gamma-herpes variant that expresses GFP under a CMV promoter (GHV-Bac-GFP), and replaced the compounds of the present invention at final concentration of 10 μM.

vaccinia virus [2] = assay type: cell-based
vaccinia virus [3] = assay type: cell-based; remark: listed apart in the source
vaccinia virus [4] = details: background statement, Reeves et al. 2005; cited from earlier work

Compound	Herpes phenotype group [1]	HERPES [1]	VACCINIA Plaque Assay (vaccinia virus [2])	Class category of infected monolayers in plaque assay (vaccinia virus [2])	VACCINIA PLAQUE ASSAY 2 (vaccinia virus [2])	further results
Cc1ccc(NC(=O)c2ccc(CN3CCOCC3)cc2)cc1Nc1nccc(-c2cccnc2)n1 [CGP51148 WBZ-4]	(iii)	DE- LAYED CPE				
Brc1cnc2c(Nc3ccccc3)nccn12 [LG2-55]	(iii)	DE- LAYED CPE	PINPOINT PLAQUES			Effects in Herpes assay [1]: had effects; Effects in Vaccinia assays (vaccinia virus [2]): had effects
Brc1cnc2c(Nc3ccc(N4CCOCC4)cc3)nccn12 [LG2-77]	(iii)	DE- LAYED CPE				
CC(=O)Nc1cccc(-c2ccc3c(-c4ccc(F)cc4)n[nH]c3n2)c1 [APcK-103]	(iii)	DE- LAYED CPE	NO PLAQUES	Class III	NO PLAQUES	Effects in Herpes assay [1]: had effects; Effects in Vaccinia assays (vaccinia virus [2]): had effects
COc1ccccc1NS(=O)(=O)c1cccc(Nc2cc(-c3ccc(Cl)cc3)ncn2)c1 [Eph2_wbz 115]		DE- LAYED CPE				
CCOC(=O)c1ccc(-c2ccc3c(-c4ccc(C)c(F)c4)n[nH]c3n2)cc1 [APcK-51]	(iii)	DE- LAYED CPE				
CCOC(=O)c1ccc(-c2ccc3c(-c4ccc(F)cc4)n[nH]c3n2)cc1 [APcK-53]	(iii)	DE- LAYED CPE				
Cc1ccc(NC(=O)c2ccc(CN3CCN(C)CC3)cc2)cc1Nc1nccc(-c2cncc(-c3ccncc3)c2)n1 [WBZ-6]		DE- LAYED CPE				
CC(=O)Nc1cccc(-c2ccc3c(-c4ccc(Cl)c(Cl)c4)n[nH]c3n2)c1 [APcK-42]	(iii)	DE- LAYED CPE				
CC(=O)c1cccc(-c2cnc3c(Nc4ccc(N5CCOCC5)cc4)nccn23)c1 [LG2-81]	(iii)	DE- LAYED CPE				
CC(=O)Nc1cccc(-c2ccc3c(-c4ccc(Br)c(F)c4)n[nH]c3n2)c1 [APcK-43]		DE- LAYED CPE	NO PLAQUES	Class III	NO PLAQUES	Effects in Herpes assay [1]: had effects; Effects in Vaccinia assays (vaccinia virus [2]): had effects
Cc1ccc(NC(=O)c2ccc(CN3CCN(C)CC3)cc2)cc1Nc1nccc(-c2cncc(-c3ccncc3)c2)n1 [StiAF3-iAR]	(ii)	ENTRY OR EGRESS INHIB- ITOR				
CC(=O)Nc1ccc(-c2ccc3c(-c4ccc(Br)cc4F)n[nH]c3n2)cc1 [APcK-21]	(iii)	DE- LAYED CPE				
CCOC(=O)c1ccc(-c2ccc3c(-c4ccc(Br)cc4F)n[nH]c3n2)cc1 [APcK-50]	(iii)	DE- LAYED CPE				
Nc1cccc(-c2ccc3nnc(-c4ccco4)n3n2)c1 [LG2-71]	(ii)	ENTRY OR EGRESS INHIB- ITOR	SMALL PLAQUES, WITH COMETS	Class III	PINPOINTS	Effects in Herpes assay [1]: had effects; Effects in Vaccinia assays (vaccinia virus [2]): had effects; Plaque phenotype due to drug treatment (FIGS. 1, 2, 4) (vaccinia virus [2]): small plaques with comets
Cc1ccc(NC(=O)c2ccc(CN3CCN(Cc4ccc(F)cc4)CC3)cc2)cc1Nc1nccc(-c2cccnc2)n1 [STI-F]			PINPOINT PLAQUES	Class III	NO PLAQUES	Actin protein tails (vaccinia virus [3]): few actin tails

Compound	Herpes phenotype group [1]	HERPES [1]	VACCINIA Plaque Assay (vaccinia virus [2])	Class category of infected monolayers in plaque assay (vaccinia virus [2])	VACCINIA PLAQUE ASSAY 2 (vaccinia virus [2])	further results
COc1ccccc1Nc1cc(-c2ccc([N+](=O)[O-])cc2)ncn1 [Eph2_wbz 203]			SMALL PLAQUES, STILL SEE COMETS	Class III	SMALL PLAQUES	Actin protein tails (vaccinia virus [3]): wild-type actin protein tails; Plaque phenotype due to drug treatment (FIGS. 1, 2, 4) (vaccinia virus [2]): small plaques with comets
CC(=O)Nc1ccc(-c2ccc3c(-c4ccc(Cl)c(Cl)c4)n[nH]c3n2)cc1 [APcK-25]	(iii)	DE- LAYED CPE				
O=C(c1ccccc1)c1ccc(-c2ccc3c(-c4ccc(F)cc4)n[nH]c3n2)cc1 [APcK-36]	(iii)	DE- LAYED CPE				
Cc1ccc(-n2c(=O)[nH]c3c(C(N)=O)nc(-c4c(Cl)cccc4[N+](=O)[O-])nc32)cc1 [dm-I-193]			SMALL PLAQUES	Class III	NO PLAQUES	
Cn1c(=O)c(-c2c(Cl)cccc2Cl)cc2cnc(Nc3cccc(N)n3)nc21 [YYA104]			PINPOINT PLAQUES	Class III	NO PLAQUES	
COc1cccc(-c2cc(Nc3cccc(S(=O)(=O)Nc4ccccc4OC)c3)ncn2)c1 [Eph2_wbz 112]			SMALL PLAQUES	Class III	PINPOINT	
Cc1ccc(-c2n[nH]c3nc(-c4ccc(C(=O)c5ccccc5)cc4)ccc23)cc1F [APcK-37]					SMALL PLAQUES	
COc1ccc(Nc2nccn3c(Br)cnc23)cc1 [LG2-9]			SLIGHTLY SMALLER PLAQUES	Class III	PINPOINTS	
Cc1ccc(-n2c(=O)[nH]c3c(C(N)=O)nc(-c4ccc([N+](=O)[O-])cc4[N+](=O)[O-])nc32)cc1 [dm-I-180]			LARGE TAILS			
O=C(Nc1cccc(-c2ccc3nnc(-c4ccc[nH]4)n3n2)c1)c1cccc([N+](=O)[O-])c1 [YYB34]			LARGE COMETS			
Cc1ccc(NC(=O)c2ccc(CN3CCN(C)CC3)cc2)cc1Nc1nccc(-c2cccnc2)n1 [CGP-2, reference compound]	(ii)	ENTRY OR EGRESS INHIB- ITOR				Plaque phenotype of known Abl-/Src-family kinase inhibitors (vaccinia virus [4]): somewhat reduced plaque size and loss of comets
Cn1c(=O)c(-c2c(Cl)cccc2Cl)cc2cnc(NC3CCN(Cc4ccccc4)CC3)nc21 [YYA188]			NO PLAQUES	Class III	NO PLAQUES	
COc1ccccc1NS(=O)(=O)c1cccc(Nc2cc(-c3ccc(OC(C)=O)cc3)ncn2)c1 [Eph2_wbz 105]			SMALLER PLAQUES THAN WT	Class III	NO PLAQUES	Plaque phenotype due to drug treatment (FIGS. 1, 2, 4) (vaccinia virus [2]): small plaques with comets
Cc1ccc(NC(=O)c2ccc(CN3CCN(CCF)CC3)cc2)cc1Nc1nccc(-c2cccnc2)n1 [STLF2]			PIN POINT PLAQUES	Class III	NO PLAQUES	
COc1ccc(OC)c(S(=O)(=O)Nc2cccc(-c3ccc4nnc(-c5cccs5)n4n3)c2)c1 [YYB44]			MEDIUM PLAQUES	Class II	SMALL PLAQUES	
